Measured values from BindingDB's records for doi:10.1016/j.bmcl.2018.11.048 (Advinus Therapeutics, 2019).

biological target: T1, Fatty-acid amide hydrolase 1 (Homo sapiens, UniProt O00519); assay: Inhibition of human transmembrane domain deficient FFAH expressed in Escherichia coli using AAMCA as substrate incubated for 1 min measured for 50 mins by fluorescence assay
T1 sequence (O00519 whole entry): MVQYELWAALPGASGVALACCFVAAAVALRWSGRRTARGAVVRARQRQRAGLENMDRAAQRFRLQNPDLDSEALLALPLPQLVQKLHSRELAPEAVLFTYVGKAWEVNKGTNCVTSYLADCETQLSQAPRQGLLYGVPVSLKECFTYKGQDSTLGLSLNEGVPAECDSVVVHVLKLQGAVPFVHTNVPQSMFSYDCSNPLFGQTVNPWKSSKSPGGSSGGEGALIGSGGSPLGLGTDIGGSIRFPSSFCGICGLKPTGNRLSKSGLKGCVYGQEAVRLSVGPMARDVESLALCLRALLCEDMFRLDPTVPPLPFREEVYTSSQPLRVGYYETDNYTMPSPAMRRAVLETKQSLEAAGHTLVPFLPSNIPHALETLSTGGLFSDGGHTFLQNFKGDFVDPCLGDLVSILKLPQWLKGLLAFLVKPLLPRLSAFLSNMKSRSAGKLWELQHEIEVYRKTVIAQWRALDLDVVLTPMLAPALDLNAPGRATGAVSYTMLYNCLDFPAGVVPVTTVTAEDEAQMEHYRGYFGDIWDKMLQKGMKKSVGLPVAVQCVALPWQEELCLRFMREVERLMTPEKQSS

Structure (SMILES) | IC50
CCOC(=O)Cn1nc2c(c1C(C)C)C(c1ccc(Cl)cc1C)N(c1cc(Cl)ccc1C)C2=O (stereo unspecified) [US9682953, 20.A-1] | 2.2 nM
Cc1cc(C(=O)NC2CCC(=Cc3cccc(Oc4ccc(C(F)(F)F)cn4)c3)CC2)cnc1N (stereo unspecified) [US9682953, 20.A-5] | 3 nM
O=C(NC1CCC(=Cc2cccc(Oc3ccc(C(F)(F)F)cn3)c2)CC1)c1cncnc1 (stereo unspecified) [US9682953, 20.A-20] | 2.6 nM

More lines, in order of falling IC50, values ahead:

IC50 | Structure (SMILES)
2.6 nM | O=C(NC1CCC(=Cc2cccc(Oc3ccc(C(F)(F)F)cn3)c2)CC1)c1cn[nH]c1 (stereo unspecified) [US9682953, 20.A-12]
2.2 nM | O=C(NC1CCC(=Cc2cccc(Oc3ccc(C(F)(F)F)cn3)c2)CC1)c1cnc2[nH]ccc2c1 (stereo unspecified) [US9682953, 20.A-13]

biological target: T2, Fatty-acid amide hydrolase 1 [30-579] (Rattus norvegicus, UniProt P97612); assay: Inhibition of rat FFAH expressed in Escherichia coli using AAMCA as substrate incubated for 1 min measured for 50 mins by fluorescence assay
T2 construct: 30-579
T2 sequence (P97612 whole entry): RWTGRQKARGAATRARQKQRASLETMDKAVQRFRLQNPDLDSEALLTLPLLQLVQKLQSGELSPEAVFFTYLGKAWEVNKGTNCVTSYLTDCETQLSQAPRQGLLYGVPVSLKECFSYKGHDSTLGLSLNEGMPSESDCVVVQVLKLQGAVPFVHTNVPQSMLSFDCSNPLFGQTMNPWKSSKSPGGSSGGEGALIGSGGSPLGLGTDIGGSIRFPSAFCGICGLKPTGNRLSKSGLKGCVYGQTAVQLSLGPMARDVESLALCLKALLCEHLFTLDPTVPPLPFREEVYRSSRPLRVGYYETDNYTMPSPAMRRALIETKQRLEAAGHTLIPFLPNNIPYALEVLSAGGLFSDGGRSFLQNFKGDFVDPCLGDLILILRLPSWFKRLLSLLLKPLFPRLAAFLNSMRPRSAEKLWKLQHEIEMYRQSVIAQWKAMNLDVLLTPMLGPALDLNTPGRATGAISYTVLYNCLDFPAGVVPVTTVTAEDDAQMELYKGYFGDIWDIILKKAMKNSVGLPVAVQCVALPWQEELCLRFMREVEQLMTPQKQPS

IC50 | Structure (SMILES)
29 nM | Cc1cc(C(=O)NC2CCC(=Cc3cccc(Oc4ccc(C(F)(F)F)cn4)c3)CC2)cnc1N (stereo unspecified) [US9682953, 20.A-5]
